We go through 31 molecules from patent US9688637B2, “3-amidobenzamides and uses thereof for increasing cellular levels of A3G and other A3 family members” (Northwestern University, priority 2014, dated 2017).

The test system of one assay is A3G-Luc. The assay is described as follows: A3G-Luc luciferase screen in 293T cells stably expressing A3G-Luc. It counts as cell-based, human. Conditions: 10 μM, 48 hrs, DMSO = 100%. From the text:
This background led to construction of cell lines to use in a search for compounds that might boost levels of A3s in the HIV target cells of the majority of HIV-infected persons who are non-controllers. The goal is to test a strategy of using such a booster in acute/early infection to prevent the hypothesized decrease of A3G and related A3s in an effort to increase “control” in persons lacking HLA B57/27-associated control. […] 293T and TZM-bl cells were maintained in DMEM (containing 4.5 g/liter glucose, L-glutamine, and sodium pyruvate) medium plus 10% fetal bovine serum, 50 IU/ml penicillin, and 50 μg/ml streptomycin at 37° C. and 5% CO2 throughout the experiments. […]. After collecting viral supernatant, 293T cells were infected with viral particles harboring the A3G-Luc expressing vector and selected with puromycin (0.75 μg/ml) for three days. Ten single cell clones of stable cells were isolated and tested for expression of A3G-Luc protein by both immunoblotting using antibody against A3G and measuring luciferase activity. Expressions in cell lines used for subsequent experiments are depicted in FIG. 2, upper panel. The A3G-Luc fusion protein was sensitive to Vif-mediated degradation (FIG. 3). Similar cells lines stably expressing A3F were constructed with the same methods (not shown).
To screen compounds that can boost A3G levels, 293T cells (25,000 cells per well in 96-well plate) stably expressing A3G-Luc protein or A3G-Luc/Vif proteins were plated. […] After 48 hrs of incubation with compounds culture medium was removed from each well and replaced with 100 μl of Britelite Plus luciferase assay substrate (PerkinElmer). Following 5 min. of incubation at room temperature, 75 μl of each cell lysate was transferred to a 96-well OptiPlate 96 (PerkinElmer) and luminescence was measured in a VICTOR X2 Multilabel Reader (PerkinElmer). Relative activity of compounds for their boosting capability A3G-Luc activity was calculated by plotting DMSO-treated A3G-Luc or A3G-Luc/Vif cells as 100%. Cellular cytotoxicity was measured by counting number of cells after 48 hrs of incubation with compounds compared to DMSO treated cells.

Another assay deals with A3G-Luc/Vif. Briefly: A3G-Luc/Vif luciferase screen in 293T cells stably co-expressing A3G-Luc and HIV-1 Vif. It counts as cell-based, human. Conditions: 10 μM, 48 hrs, DMSO = 100%. As to the method:
FIG. 6. 293T cell clone #6 stably co-expressing A3G-Luciferase fusion protein together with HIV-1 Vif was used. Small molecule compounds were tested for their effects on stability of A3G and inhibition of Vif activity against A3G by measuring luciferase activity, relative to treatment with control DMSO only. The relative % luciferase activity was higher after treatment with NU compounds than DMSO.
[…]. After sorting, expression of both A3G-Luc and Vif was confirmed by immunoblotting using antibody against both A3G and Vif.
To screen compounds that can boost A3G levels, 293T cells (25,000 cells per well in 96-well plate) stably expressing A3G-Luc protein or A3G-Luc/Vif proteins were plated. After 24 hrs post plating culture medium was replaced with 100 μl of new medium containing either DMSO as a control or various compounds (10 μM concentration). After 48 hrs of incubation with compounds culture medium was removed from each well and replaced with 100 μl of Britelite Plus luciferase assay substrate (PerkinElmer). Following 5 min. of incubation at room temperature, 75 μl of each cell lysate was transferred to a 96-well OptiPlate 96 (PerkinElmer) and luminescence was measured in a VICTOR X2 Multilabel Reader (PerkinElmer). Relative activity of compounds for their boosting capability A3G-Luc activity was calculated by plotting DMSO-treated A3G-Luc or A3G-Luc/Vif cells as 100%. Cellular cytotoxicity was measured by counting number of cells after 48 hrs of incubation with compounds compared to DMSO treated cells.

For the molecule `COc1ccc(C(=O)Nc2ccc3c(c2)OCO3)cc1NC(=O)C(C)C` [NU-50], the “A3G-Luc Activity (% of Relative Light Units compared to DMSO treated control)” value in the assay on A3G-Luc was found to be 115%. For the same molecule, the “Vif-A3G-Luc Activity (% of RLUs compared to DMSO treated control)” value in the assay on A3G-Luc/Vif is 145%.
The matching figures for `COc1ccc(C(=O)Nc2ccc(Cl)c(Cl)c2)cc1NC(=O)c1ccc2c(c1)OCO2` [NU-303]: 90% and 71%.
The matching figures for `COc1ccc(C(=O)Nc2ccc(Cl)c(Cl)c2)cc1NC(=O)C1CC1` [NU-304]: 124% and 138%.
The matching figures for `COc1ccc(C(=O)Nc2ccc(Cl)c(Cl)c2)cc1NC(=O)C1CCOCC1` [NU-305]: 121% and 109%.
Turning to `COc1ccc(C(=O)Nc2ccc(Cl)c(Cl)c2)cc1NC(=O)c1ccncc1` [NU-306], in the assay with A3G-Luc, the “A3G-Luc Activity (% of Relative Light Units compared to DMSO treated control)” value is 96%. In the assay on A3G-Luc/Vif, the “Vif-A3G-Luc Activity (% of RLUs compared to DMSO treated control)” value is given as 84%.
As for `COc1ccc(C(=O)Nc2ccc(Cl)c(Cl)c2)cc1NC(=O)c1cccnc1` [NU-307], in the assay on A3G-Luc, the “A3G-Luc Activity (% of Relative Light Units compared to DMSO treated control)” value is given as 102%. The “Vif-A3G-Luc Activity (% of RLUs compared to DMSO treated control)” value in the assay with A3G-Luc/Vif was 91%.
On the same counts, the results for `COc1ccc(C(=O)Nc2ccc(Cl)c(Cl)c2)cc1NC(=O)Cc1ccccc1` [NU-308] are 92% and 113%.
On the same counts, the results for `COc1ccc(C(=O)Nc2ccc(Cl)c(Cl)c2)cc1NC(=O)c1ccccc1` [NU-309] are 100% and 94%.
For the molecule `COc1ccc(C(=O)Nc2ccc(Cl)c(Cl)c2)cc1NC(=O)CC(C)C` [NU-452], the “A3G-Luc Activity (% of Relative Light Units compared to DMSO treated control)” value in the assay with A3G-Luc came to 140%. For the same molecule, the “Vif-A3G-Luc Activity (% of RLUs compared to DMSO treated control)” value with A3G-Luc/Vif is 110%.
On the same counts, the results for `COc1ccc(C(=O)Nc2ccc(Cl)c(Cl)c2)cc1NC(=O)CC1CCCC1` [NU-453] are 169% and 95%.
The matching figures for `COc1ccc(C(=O)Nc2ccc(Cl)c(Cl)c2)cc1NC(=O)CC1CCCCC1` [NU-454]: 86% and 84%.
Take `COc1ccc(C(=O)Nc2ccc(Cl)c(Cl)c2)cc1NC(=O)C1CCCC1` [NU-455]: the “A3G-Luc Activity (% of Relative Light Units compared to DMSO treated control)” value in the assay with A3G-Luc was found to be 188%. Also, in the assay with A3G-Luc/Vif, the “Vif-A3G-Luc Activity (% of RLUs compared to DMSO treated control)” value came out at 131%.
The matching figures for `CCC(C)C(=O)Nc1cc(C(=O)Nc2ccc(Cl)c(Cl)c2)ccc1OC` (centres unmarked) [NU-456]: 148% and 113%.
As to `CCC(C)(C)C(=O)Nc1cc(C(=O)Nc2ccc(Cl)c(Cl)c2)ccc1OC` [NU-457], the “A3G-Luc Activity (% of Relative Light Units compared to DMSO treated control)” value with A3G-Luc was found to be 120%. In addition, in the assay with A3G-Luc/Vif, the “Vif-A3G-Luc Activity (% of RLUs compared to DMSO treated control)” value is 93%.
The matching figures for `COc1ccc(C(=O)Nc2ccc(Cl)c(Cl)c2)cc1NC(=O)C1C2CC3CC(C2)CC1C3` (centres unmarked) [NU-459]: 106% and 69%.
For `COc1ccc(C(=O)Nc2ccc(Cl)c(Cl)c2)cc1NC(=O)OC(C)C` [NU-461], the “A3G-Luc Activity (% of Relative Light Units compared to DMSO treated control)” value with A3G-Luc is recorded as 124%. For the same molecule, the “Vif-A3G-Luc Activity (% of RLUs compared to DMSO treated control)” value in the assay with A3G-Luc/Vif amounted to 70%.
Turning to `COc1ccc(C(=O)Nc2ccc(Cl)c(Cl)c2)cc1NS(=O)(=O)C1CC1` [NU-469], in the assay with A3G-Luc, the “A3G-Luc Activity (% of Relative Light Units compared to DMSO treated control)” value is reported as 100%. Moreover, the “Vif-A3G-Luc Activity (% of RLUs compared to DMSO treated control)” value in the assay with A3G-Luc/Vif is reported as 82%.
The matching figures for `COc1ccc(C(=O)Nc2ccc(Cl)c(Cl)c2)cc1NS(=O)(=O)C1CCC1` [NU-470]: 100% and 85%.
On the same counts, the results for `COc1ccc(C(=O)Nc2ccc(Cl)c(Cl)c2)cc1NC(=O)N1CCCCC1` [NU-473] are 110% and 84%.
Regarding `COc1ccc(C(=O)Nc2ccc(Cl)c(Cl)c2)cc1NC(=O)CC(C)(C)C` [NU-474], the “A3G-Luc Activity (% of Relative Light Units compared to DMSO treated control)” value in the assay on A3G-Luc was 105%. Further, the “Vif-A3G-Luc Activity (% of RLUs compared to DMSO treated control)” value in the assay on A3G-Luc/Vif was determined as 71%.
The matching figures for `COc1ccc(C(=O)Nc2ccncc2)cc1NC(=O)C(C)C` [NU-565]: 66% and 55%.
For `COc1ccc(C(=O)NCc2ccccc2)cc1NC(=O)C(C)C` [NU-566], the “A3G-Luc Activity (% of Relative Light Units compared to DMSO treated control)” value with A3G-Luc is given as 106%. Moreover, in the assay on A3G-Luc/Vif, the “Vif-A3G-Luc Activity (% of RLUs compared to DMSO treated control)” value is given as 80%.
The matching figures for `COc1ccc(C(=O)NCc2ccc(F)cc2)cc1NC(=O)C(C)C` [NU-567]: 93% and 76%.
Consider `COc1ccc(CNC(=O)c2ccc(OC)c(NC(=O)C(C)C)c2)cc1` [NU-568], for which the “A3G-Luc Activity (% of Relative Light Units compared to DMSO treated control)” value in the assay with A3G-Luc is listed as 96%. Moreover, the “Vif-A3G-Luc Activity (% of RLUs compared to DMSO treated control)” value with A3G-Luc/Vif is listed as 87%.
The matching figures for `COc1ccc(C(=O)NCc2ccncc2)cc1NC(=O)C(C)C` [NU-569]: 98% and 85%.
The matching figures for `COc1ccc(C(=O)N2CCc3ccccc3C2)cc1NC(=O)C(C)C` [NU-570]: 96% and 87%.
The matching figures for `COc1ccc(C(=O)Nc2ccc(F)c(F)c2)cc1NC(=O)C(C)C` [NU-571]: 116% and 104%.
As to `COc1ccc(C(=O)Nc2ccc(OC)c(OC)c2)cc1NC(=O)C(C)C` [NU-572], in the assay on A3G-Luc, the “A3G-Luc Activity (% of Relative Light Units compared to DMSO treated control)” value is 98%. For the same molecule, the “Vif-A3G-Luc Activity (% of RLUs compared to DMSO treated control)” value in the assay on A3G-Luc/Vif came out at 91%.
The matching figures for `COc1ccc(C(=O)NC2CCCCC2)cc1NC(=O)C(C)C` [NU-573]: 117% and 80%.
`CCCCOc1ccc(C(=O)Nc2ccc(Cl)c(Cl)c2)cc1NC(=O)C1CCC1` [NU-614]: the “A3G-Luc Activity (% of Relative Light Units compared to DMSO treated control)” value with A3G-Luc stood at 96%. Moreover, in the assay on A3G-Luc/Vif, the “Vif-A3G-Luc Activity (% of RLUs compared to DMSO treated control)” value worked out at 99%.
For `CCCCOc1ccc(C(=O)Nc2ccc(Cl)c(Cl)c2)cc1NC(=O)CC1CC1` [NU-615], in the assay with A3G-Luc, the “A3G-Luc Activity (% of Relative Light Units compared to DMSO treated control)” value worked out at 102%. Also, the “Vif-A3G-Luc Activity (% of RLUs compared to DMSO treated control)” value with A3G-Luc/Vif was found to be 105%.
